Data: PubChem BioAssay (NCI)
Values joined by “and” are separate entries in the source; they are usually repeats but may differ in a detail not shown here. Equal values may be shown once.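 Cultured in 96-well plates, cells were exposed to test compound for 48 hours across five concentrations. GI50 marks 50% less growth. TGI: total growth inhibition.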

Key:
Assay in all cases: growth of human tumour cells (NCI), 48 h
[1] = tested on: BT-549 breast
[2] = tested on: KM20L2 colon
[3] = tested on: LXFL 529 NSCLC
[4] = tested on: XF 498 CNS
[5] = tested on: RXF-631 renal
[6] = tested on: MDA-N

## COc1ccc2c(C3(c4cn(C)c5cc(OC)ccc45)C(=O)Nc4ccc(Cl)cc43)cn(C)c2c1
[1]
  GI50: 5.26 µM
  TGI: 83.4 µM

## COc1ccccc1C1=C(Nc2ccccc2)C(=O)NC1=O
[1]
  GI50: > 25 µM
  TGI: > 25 µM

## Clc1ccc(-c2csc(Nc3cccc(-c4csc(-c5ccccc5)n4)c3)n2)cc1
[1]
  GI50: 15.8 µM
  TGI: 31.4 µM

## Cc1nnc2c3nnc(C)n3c3ccccc3n12
[2]
  TGI: > 100 µM
[3]
  TGI: > 100 µM
[4]
  TGI: > 100 µM

## CCCCCCNC(=O)Oc1ccc(/C(=C(/C)Cc2ccc(OC)cc2)c2ccc(OCCCN(C)C)cc2)cc1
[1]
  GI50: 15.6 µM
  TGI: 30.3 µM

## O=S(=O)(O)c1ccc(N=Nc2nc(C(F)(F)F)c(C(F)(F)F)[nH]2)cc1
[2]
  TGI: > 100 µM
[3]
  TGI: > 100 µM
[5]
  TGI: > 100 µM
[4]
  TGI: 41.1 µM

## CC(=O)N1N=C(c2ccc(Nc3ccnc4cc(Cl)ccc34)cc2)CC1c1ccc(Cl)cc1 (stereo unspecified)
[1]
  GI50: 5.4 µM
  TGI: > 100 µM

## CN(C)C(=Nc1nc(=[N+](C)C)ss1)N(C)C
[2]
  TGI: > 100 µM
[3]
  TGI: > 100 µM
[5]
  TGI: > 100 µM
[4]
  TGI: > 100 µM

## O=[N+]([O-])c1ccc(C2CC(c3ccccc3Cl)=Nc3ccccc3S2=O)cc1 (stereo unspecified)
[1]
  TGI: 31.1 µM
[2]
  TGI: 7.04 µM
[3]
  TGI: 3.54 µM
[6]
  TGI: 21.8 µM
[5]
  TGI: 21.5 µM
[4]
  TGI: 18.4 µM

## COC(=O)C1=C(c2ccc(OC)c(OC)c2)OC(c2cc(OC)c(OC)c(OC)c2)C1 (stereo unspecified)
[2]
  TGI: > 100 µM
[3]
  TGI: > 100 µM
[5]
  TGI: > 100 µM
[4]
  TGI: > 100 µM

## CN=C(NC(=S)N(C)C)N(C)C
[2]
  TGI: > 100 µM
[3]
  TGI: > 100 µM
[5]
  TGI: > 100 µM
[4]
  TGI: > 100 µM

## FC(F)(F)c1ccc(-c2cnc(-n3cc(COCCN4CCCCC4)nn3)nc2NC2CCCCCC2)cc1
[1]
  GI50: 4.33 µM
  TGI: 8.55 µM

## C=C1C(=O)O[C@H]2[C@H]1CC/C(COC(=O)CCSCCC(=O)OC/C1=C/CC[C@@]3(C)O[C@H]3[C@H]3OC(=O)C(=C)[C@@H]3CC1)=C\CC[C@@]1(C)O[C@@H]21
[1]
  GI50: 1.29 µM
  TGI: 2.66 µM

## Cc1cn(C2C=CC(CO)O2)c(=O)[nH]c1=O (stereo unspecified)
[1]
  TGI: > 1000 µM
[6]
  TGI: > 1000 µM

## COC1=C(C)C(=O)c2c(c(CCCl)c3n2CCC3O)C1=O (stereo unspecified)
[1]
  GI50: 0.247 µM
  TGI: 1.09 µM

## CCOc1cc(Br)c(C(C)NC(=O)c2cccc(OC)c2)cc1OCC (stereo unspecified)
[1]
  GI50: 13.2 µM
  TGI: > 84.1 µM

## CC(=O)NC1C(OCc2ccccc2)OC(CO)C(O)C1OC(C)C(=O)N[C@@H](C)C(=O)N[C@H](CCC(=O)OCCNc1c2ccccc2nc2cccc([N+](=O)[O-])c12)C(N)=O (stereo partly specified)
[2]
  TGI: 0.00247 µM
[3]
  TGI: 0.00267 µM

## CC1=C(/C=C/C(C)=C/C=C/C(C)=C/C=N/NC(=S)NC(=S)N/N=C/C=C(C)/C=C/C=C(C)/C=C/C2=C(C)CCCC2(C)C)C(C)(C)CCC1
[1]
  GI50: 4.85 µM and 1.69 µM
  TGI: 11.5 µM and 4.77 µM

## Cn1nc(-c2ccc(Cl)cc2)nc2c(=O)n(C)c(=O)nc1-2
[1]
  GI50: 0.968 µM
  TGI: 1.94 µM

## COc1cccc(-c2ccc3c(c2)C2CCN(Cc4ccccc4)C3C2)c1 (stereo unspecified)
[1]
  GI50: 6.12 µM
  TGI: 21.1 µM

## CC(C)(C)c1ccc(OC(=O)Nc2ccc(O)c(C(=O)O)c2)cc1
[1]
  TGI: > 100 µM

## Brc1ccc2[nH]cc(-c3nc(-c4c[nH]c5ncccc45)cs3)c2c1
[1]
  GI50: 6.07 µM
  TGI: 18.9 µM

## C[N+](C)(C)CC1CCC/C1=N/O (stereo unspecified)
[2]
  TGI: 49.4 µM
[3]
  TGI: > 100 µM
[4]
  TGI: 3.1 µM

## CCOC(=O)c1c(C)n(Cc2ccccc2)c2c1cc(O)c1[nH]c(Cc3ccccc3)nc12
[1]
  GI50: 2.39 µM
  TGI: 28.8 µM

## Clc1ccc(-c2nnc(-c3cccc4ccccc34)o2)cc1Cl
[1]
  TGI: > 100 µM
[6]
  TGI: > 100 µM

## CCC(c1ccc(OC)cc1)C(CC)c1ccc(O)c(CN2CCN(C)CC2)c1 (stereo unspecified)
[1]
  GI50: 13.2 µM
  TGI: 26.8 µM

## COC(=O)C(=CNC(N)=O)C(=O)OC
[6]
  TGI: > 100 µM

## O=C(CC1(O)C(=O)Nc2ccc(Br)cc21)c1ccc(Cl)cc1Cl (stereo unspecified)
[2]
  TGI: > 100 µM
[3]
  TGI: > 100 µM
[5]
  TGI: > 100 µM

## CS(=O)(=O)NNS(=O)(=O)c1ccccc1
[2]
  TGI: > 100 µM
[3]
  TGI: > 100 µM
[4]
  TGI: > 100 µM

## CCCCCCCCCCCCCCCCNCCCN(C)CCCN
[2]
  TGI: 32.7 µM
[3]
  TGI: 33.2 µM

## COc1cc(-c2cc(-c3ccc(Nc4ccnc5cc(Cl)ccc45)cc3)nc(N3CCOCC3)n2)cc(OC)c1OC
[1]
  GI50: 2.57 µM
  TGI: 7.19 µM

## O=[N+]([O-])c1ccc(Oc2nc(Nc3ccc(O[C@H]4CO[C@H]5[C@@H]4OC[C@@H]5O)c(Cl)c3)ncc2F)c(Cl)c1
[1]
  GI50: 1.29 µM
  TGI: 3.36 µM

## COc1cccc(CSCC(=O)O)c1
[1]
  TGI: > 100 µM
[6]
  TGI: > 100 µM

## Cc1cc(S(=O)(=O)/N=C/N(C)C)c(SC(=O)c2ccc(Cl)cc2)cc1Cl
[1]
  GI50: 18.7 µM
  TGI: 50.4 µM

## O=C(O)C1CCCCC1c1c2ccc(=O)c(O)c-2oc2c(O)c(O)ccc12 (stereo unspecified)
[6]
  TGI: 44.9 µM

## COC(=O)CCC1CCc2c(OC)ccc(OC)c2C1=O (stereo unspecified)
[2]
  TGI: > 100 µM
[3]
  TGI: > 100 µM

## O=C(CCC(=O)Nc1ccc(Cl)c(Cl)c1)CC(=O)c1ccc(F)cc1
[2]
  TGI: > 100 µM
[3]
  TGI: > 100 µM
[5]
  TGI: > 100 µM

## N#CC1CCCCOCCOCCOCCOCCOCCCCCC1=O (stereo unspecified)
[2]
  TGI: > 100 µM
[3]
  TGI: > 100 µM
[5]
  TGI: > 100 µM

## O=C(O)C1CC2(C1)CC(C(=O)O)C2 (stereo unspecified)
[1]
  TGI: > 100 µM
[6]
  TGI: > 100 µM

## O=C1C2=C(c3ccccc31)C(c1ccccc1)N1C(=O)CSC1=N2 (stereo unspecified)
[1]
  TGI: 66.5 µM
[2]
  TGI: > 100 µM
[3]
  TGI: > 100 µM
[6]
  TGI: 47.3 µM
[5]
  TGI: > 100 µM
[4]
  TGI: > 100 µM

## COc1cccc2c1-c1c(c3ccc([N+](=O)[O-])cc3c(=O)n1CCCN)C2=O
[1]
  GI50: 1.72 µM
  TGI: 3.61 µM
